What was measured:
Settings in all cases: 72 h
HepG2 [1] = assay: cell viability relative to DMSO; higher = less toxic
U2OS [2] = assay: as above
Vero E6 [3] = assay: as above
Caco-2 [4] = assay: as above
Calu-3 [5] = assay: as above
HepG2 [6] = assay: drug sensitivity score (DSS) for viability; higher = more toxic; extreme values may be limits of the assay
U2OS [7] = assay: as above
Vero E6 [8] = assay: as above
Caco-2 [9] = assay: as above
Calu-3 [10] = assay: as above
HepG2 [11] = assay: relative viability EC50 (midpoint between 100% and the lowest measured viability); higher = less toxic
U2OS [12] = assay: as above
Vero E6 [13] = assay: as above
Caco-2 [14] = assay: as above
Calu-3 [15] = assay: as above

| SMILES | cell viability (HepG2 [1]; 1 nM) | cell viability (HepG2 [1]; 10 nM) | cell viability (HepG2 [1]; 100 nM) | cell viability (HepG2 [1]; 1000 nM) | cell viability (HepG2 [1]; 10000 nM) | cell viability (U2OS [2]; 1 nM) | cell viability (U2OS [2]; 10 nM) | cell viability (U2OS [2]; 100 nM) | cell viability (U2OS [2]; 1000 nM) | cell viability (U2OS [2]; 10000 nM) | cell viability (Vero E6 [3]; 1 nM) | cell viability (Vero E6 [3]; 10 nM) | cell viability (Vero E6 [3]; 100 nM) | cell viability (Vero E6 [3]; 1000 nM) | cell viability (Vero E6 [3]; 10000 nM) | cell viability (Caco-2 [4]; 1 nM) | cell viability (Caco-2 [4]; 10 nM) | cell viability (Caco-2 [4]; 100 nM) | cell viability (Caco-2 [4]; 1000 nM) | cell viability (Caco-2 [4]; 10000 nM) | cell viability (Calu-3 [5]; 1 nM) | cell viability (Calu-3 [5]; 10 nM) | cell viability (Calu-3 [5]; 100 nM) | cell viability (Calu-3 [5]; 1000 nM) | cell viability (Calu-3 [5]; 10000 nM) | drug sensitivity score (HepG2 [6]) | drug sensitivity score (U2OS [7]) | drug sensitivity score (Vero E6 [8]) | drug sensitivity score (Caco-2 [9]) | drug sensitivity score (Calu-3 [10]) | relative viability EC50 (HepG2 [11]) | relative viability EC50 (U2OS [12]) | relative viability EC50 (Vero E6 [13]) | relative viability EC50 (Caco-2 [14]) | relative viability EC50 (Calu-3 [15]) |
| --- | --- | --- | --- | --- | --- | --- | --- | --- | --- | --- | --- | --- | --- | --- | --- | --- | --- | --- | --- | --- | --- | --- | --- | --- | --- | --- | --- | --- | --- | --- | --- | --- | --- | --- | --- |
| CC(C)(C=O)Cc1cc(C(C)(C)C)c(O)c(C(C)(C)C)c1 | 97.2% | 96.1% | 108% | 99.9% | 90.9% | 106% | 103% | 104% | 98.1% | 102% | 97.1% | 97.8% | 103% | 98.4% | 101% | 92.7% | 97.6% | 97.6% | 90.4% | 96.7% | 102% | 98.8% | 91.2% | 100% | 102% | 0 | 0 | 0 | 0 | 0 | > 10 µM | > 10 µM | > 10 µM | > 10 µM | > 10 µM |
| CN=c1nc(-c2ccccc2)n(-c2ccccc2)s1 | 98.4% | 99.8% | 98% | 92.2% | 95.7% | 95.5% | 98.1% | 93.4% | 96.9% | 93.8% | 97.8% | 99.3% | 96.7% | 101% | 87.9% | 97.2% | 105% | 97% | 97.7% | 89% | 110% | 101% | 95.8% | 89.9% | 96% | 0 | 0 | 0 | 0 | 0 | > 10 µM | > 10 µM | > 10 µM | > 10 µM | > 10 µM |
| CO[C@H]1/C=C/O[C@@]2(C)Oc3c(C)c(O)c4c(O)c(c(/C=N/N=C/N5CCCCC5)c(O)c4c3C2=O)NC(=O)/C(C)=C\C=C\[C@H](C)[C@H](O)[C@@H](C)[C@@H](O)[C@@H](C)[C@H](OC(C)=O)[C@@H]1C | 98.5% | 101% | 93.3% | 113% | 108% | 102% | 106% | 99% | 99.6% | 91.6% | 102% | 100% | 98% | 98.2% | 90.9% | 85.4% | 96.2% | 84.9% | 90.9% | 83.1% | 107% | 102% | 105% | 98.2% | 101% | 0 | 0 | 0 | 0 | 0 | > 10 µM | > 10 µM | > 10 µM | > 10 µM | > 10 µM |
| COc1[nH]c2ccc(F)cc2c1C(=O)OCC1CCN(CCNS(C)(=O)=O)CC1 | 98.7% | 105% | 97.2% | 101% | 94.6% | 104% | 94.5% | 100% | 97.2% | 98.9% | 103% | 108% | 102% | 104% | 97.3% | 103% | 99.3% | 96.7% | 98.2% | 98.3% | 96% | 94.3% | 92.2% | 105% | 107% | 0 | 0 | 0 | 0 | 0 | > 10 µM | > 10 µM | > 10 µM | > 10 µM | > 10 µM |
| COc1ccc(NS(=O)(=O)c2ccc(I)cc2)cc1N1CCN(C)CC1 | 108% | 104% | 100% | 99.9% | 82.6% | 101% | 97.7% | 102% | 99.8% | 98.2% | 103% | 107% | 102% | 100% | 92.2% | 109% | 98% | 102% | 98.5% | 93.3% | 95.6% | 94.7% | 102% | 93.3% | 101% | 0.4 | 0 | 0 | 0 | 0 | > 10 µM | > 10 µM | > 10 µM | > 10 µM | > 10 µM |
| COc1ccc(S(=O)(=O)Nc2c(C)cc(C)cc2C)cc1 | 105% | 98% | 105% | 99.5% | 97.3% | 103% | 98.7% | 101% | 98.5% | 99.6% | 101% | 105% | 97.2% | 101% | 93.7% | 106% | 94.2% | 93.6% | 94.9% | 94.1% | 103% | 96.5% | 94.6% | 106% | 102% | 0 | 0 | 0 | 0 | 0 | > 10 µM | > 10 µM | > 10 µM | > 10 µM | > 10 µM |
| COc1nccc(-c2c(-c3ccc(F)cc3)ncn2C2CCNCC2)n1 | 93.9% | 99.8% | 104% | 88.4% | 94.6% | 96.3% | 99.5% | 97.1% | 96.9% | 90% | 100% | 97% | 94.4% | 83.6% | 89% | 95.8% | 95.7% | 87.6% | 95.2% | 87.8% | 87.3% | 93.7% | 90.7% | 95.7% | 83.3% | 0.4 | 0 | 1.4 | 0 | 0 | > 10 µM | > 10 µM | > 10 µM | > 10 µM | > 10 µM |
| C[C@H](Cc1ccc2c(c1)OC(C(=O)O)(C(=O)O)O2)NC[C@H](O)c1cccc(Cl)c1 | 97.9% | 101% | 103% | 101% | 97.4% | 104% | 101% | 99.1% | 99% | 102% | 97.5% | 97.2% | 93.1% | 96.4% | 97.9% | 103% | 101% | 104% | 97.3% | 111% | 103% | 101% | 90.6% | 92.9% | 91.1% | 0 | 0 | 0 | 0 | 0 | > 10 µM | > 10 µM | > 10 µM | > 10 µM | > 10 µM |
| Cc1ccc(N2CCN(CC[C@H]3NC(=O)c4ccccc43)CC2)cc1C | 90.2% | 96.1% | 96.2% | 95.2% | 97.3% | 96.7% | 101% | 98.9% | 96.2% | 102% | 90.8% | 97.7% | 93.4% | 98.7% | 111% | 97.3% | 90.7% | 92.4% | 97% | 96.4% | 104% | 96.1% | 95.6% | 99.7% | 113% | 0 | 0 | 0 | 0 | 0 | > 10 µM | > 10 µM | > 10 µM | > 10 µM | > 10 µM |
| Cc1ccc(S(=O)(=O)Cc2nc(-c3ccc(C(=O)NCc4cccnc4)cc3)oc2C)cc1 | 101% | 77.3% | 23.5% | 12.2% | 9.5% | 96.4% | 108% | 1.1% | -0.1% | -0.2% | 106% | 110% | 2.3% | 1.5% | 2.6% | 104% | 107% | 11.2% | 5.4% | 16.6% | 105% | 102% | 8.7% | 5.3% | 5.3% | 28.2 | 29.7 | 29.2 | 27.6 | 28.3 | 0.0249 µM | 0.0364 µM | 0.0372 µM | 0.0408 µM | 0.036 µM |
| Cn1cc(-c2ccc(F)c(C(F)(F)F)c2)nc1C1CCN(c2ncnc3[nH]ncc23)CC1 | 106% | 97.8% | 106% | 91.7% | 94.7% | 96.9% | 94.5% | 90.3% | 90.9% | 84.6% | 98.4% | 106% | 96.7% | 95.4% | 92% | 97% | 96.9% | 102% | 102% | 84.5% | 95.6% | 90.2% | 96.4% | 94.1% | 82.1% | 0 | 0.7 | 0 | 0.2 | 0.4 | > 10 µM | > 10 µM | > 10 µM | > 10 µM | > 10 µM |

Reference: the supplement of paper PMC13380429
